The test concerns the target Tyrosine-protein kinase Tec (Homo sapiens) (UniProt P42680). The test can be described thus: Inhibition of TEC (unknown origin).

Broadly, the IC50 is the point on the concentration scale where inhibition reaches its midpoint.

Tyrosine-protein kinase Tec (Homo sapiens), sequence (P42680 whole entry, looked up): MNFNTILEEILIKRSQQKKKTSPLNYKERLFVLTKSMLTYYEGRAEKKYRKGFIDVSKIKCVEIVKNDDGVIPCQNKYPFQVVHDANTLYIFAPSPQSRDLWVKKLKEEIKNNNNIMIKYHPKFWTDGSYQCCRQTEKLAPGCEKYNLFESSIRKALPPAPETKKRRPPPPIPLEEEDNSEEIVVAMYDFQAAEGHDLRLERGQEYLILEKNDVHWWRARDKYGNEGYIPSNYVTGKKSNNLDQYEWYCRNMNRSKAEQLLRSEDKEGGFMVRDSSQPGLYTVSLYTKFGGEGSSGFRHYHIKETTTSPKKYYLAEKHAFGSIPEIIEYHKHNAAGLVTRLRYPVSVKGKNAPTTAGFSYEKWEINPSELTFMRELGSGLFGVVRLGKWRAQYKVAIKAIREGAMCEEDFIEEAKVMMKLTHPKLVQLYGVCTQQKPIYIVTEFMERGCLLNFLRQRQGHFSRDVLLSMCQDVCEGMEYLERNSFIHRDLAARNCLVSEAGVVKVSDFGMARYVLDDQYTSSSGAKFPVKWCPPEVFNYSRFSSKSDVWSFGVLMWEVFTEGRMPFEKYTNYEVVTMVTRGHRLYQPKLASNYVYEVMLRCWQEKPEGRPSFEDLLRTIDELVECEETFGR

`N#CN1CCC[C@@H](n2nc(-c3ccc(Oc4ccc(F)cc4F)cc3)c(C(N)=O)c2N)C1` registered a 50% inhibitory concentration (IC50) of 1.2 nM.

Source of the values: BindingDB's records for PubMed 36324498 (Yangtze University, 2022).
